Laboratory results reported in US20220151979A1, “COMPOSITION FOR PREVENTION OR TREATMENT OF CARDIOVASCULAR AND METABOLIC DISEASE COMPRISING NORANHYDROICARITIN” (SEOUL NATIONAL UNIVERSITY HOSPITAL, priority 2019, published 2022).

Experiments:
Format in all cases: cell-based, human
PCSK9 [1] = assay: Immunoblot of PCSK9 in HepG2 cells, noranhydroicaritin and pravastatin, pitavastatin, fluvastatin or simvastatin (Table 1); details: statin 5 μM singly, untreated = 1 ± 0.04
Protocol: (§1) The cells aliquoted by the method of Example 7 were treated with noranhydroicaritin or each statin (pravastatin, pitavastatin, fluvastatin, or simvastatin) singly or with noranhydroicaritin and a statin (pravastatin, pitavastatin, fluvastatin, or simvastatin) simultaneously, and the proteins were extracted. On an SDS-polyacrylamide gel, 30 μg of each protein was electrophoresed, and attached to a membrane, and then protein expression levels were confirmed using the respective antibodies: PCSK9 and LDLR.

PCSK9 [2] = assay: Immunoblot of PCSK9 in HepG2 cells, noranhydroicaritin and statin singly or in combination; details: treated singly
Protocol: as §1, with “or a” for “or each”, “statin (atorvastatin” for “statin (pravastatin, pitavastatin, fluvastatin,”, “or rosuvastatin)” for “or simvastatin)”, “antibodies: phospho-AMPK, PCSK9, LDLR,” for “antibodies: PCSK9”, “and PPARγ.” for “and LDLR.”

SREBP 1 promoter = assay: SREBP 1 promoter-reporter luciferase assay in HEK293T cells; details: pGL4.14-SREBP-transfected HEK293T cells, 18 hours, compared to control
Protocol: (§2) In order to confirm the SREBP gene expression inhibitory effect of noranhydroicaritin, HEK293T cells were treated with noranhydroicaritin and kaempferol, and it was confirmed whether the expression of SREBP was inhibited through a luciferase assay.
(§3) i) A primer was prepared to contain KpnI and XhoI restriction enzyme sites in the SREBP 1 and 2 promoter gene region, and then PCR (polymerase chain reaction) and electrophoresis on an agarose gel were performed to isolate SREBP promoter region DNA. A pGL4.14-[luc2/Hygro] vector containing a firefly luciferase as a reporter gene was treated with the same restriction enzymes (KpnI and XhoI), and then isolated via agarose gel electrophoresis and gel extraction. The purely isolated SREBP promoter gene region and pGL4.14-[luc2/Hygro] vector were reacted for 1 hour using In-fusion DNA ligase (Takara), and then transformed into E. coli to prepare a promoter-reporter construct in which the SREBP promoter was inserted, and this was named pGL4.14-SREBP.
(§4) ii) In order to measure the transcriptional activity of the SREBP promoter gene, HEK293T cells were transfected with pGL4.14-SREBP, and then the luciferase activity of the cell extract was measured. […] Thereafter, the luciferase activity was measured by the method of Example 6. […]

SREBP 2 promoter = assay: SREBP 2 promoter-reporter luciferase assay in HEK293T cells; details: pGL4.14-SREBP-transfected HEK293T cells, 18 hours, compared to control
Protocol: as §2, §3, §4

SMILES	PCSK9 (PCSK9 [1])	other results
CC(C)n1c(/C=C/C(O)CC(O)CC(=O)O)c(-c2ccc(F)cc2)c2ccccc21 (centres unmarked) [Fluvastatin, fluvastatin]	1.63 ± 0.02	
O=C(O)C[C@H](O)C[C@H](O)/C=C/c1c(C2CC2)nc2ccccc2c1-c1ccc(F)cc1 [Pitavastatin, pitavastatin]	1.59 ± 0.02	
CC[C@H](C)C(=O)O[C@H]1C[C@H](O)C=C2C=C[C@H](C)[C@H](CC[C@@H](O)C[C@@H](O)CC(=O)O)[C@H]21 [Pravastatin, pravastatin]	1.9 ± 0.06	
CCC(C)(C)C(=O)O[C@H]1C[C@@H](C)C=C2C=C[C@H](C)[C@H](CC[C@@H]3C[C@@H](O)CC(=O)O3)[C@H]21 [Simvastatin, simvastatin]	1.85 ± 0.11	
CC(C)c1c(C(=O)Nc2ccccc2)c(-c2ccccc2)c(-c2ccc(F)cc2)n1CC[C@@H](O)C[C@@H](O)CC(=O)O [atorvastatin]		quantity of PCSK9 (immunoblot) (PCSK9 [2]): increased
O=c1c(O)c(-c2ccc(O)cc2)oc2cc(O)cc(O)c12 [kaempferol, reference compound]		SREBP 1 luciferase activity (SREBP 1 promoter): actually increased; SREBP 2 luciferase activity (SREBP 2 promoter): actually increased
CC(C)c1nc(N(C)S(C)(=O)=O)nc(-c2ccc(F)cc2)c1/C=C/[C@@H](O)C[C@@H](O)CC(=O)O [rosuvastatin]		quantity of PCSK9 (immunoblot) (PCSK9 [2]): increased
